Data reported in ChEMBL document CHEMBL1201862, “PubChem BioAssay data set” (2004).
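How tested: cells in 96-well plates exposed to compound for 48 hours at five concentrations. GI50: concentration for 50% inhibition of growth.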 Calls of active or inactive are those of the source. Cut-off read from the data, not from the text of the source: active = GI50 up to about 1.1 µM and inactive = higher.

What was measured:
Test in all cases: inhibition of tumour cell growth, NCI panel, 48 h
UO-31 = system: UO-31
SNB-75 = system: SNB-75
KM12 = system: KM12
IGROV-1 = system: IGROV-1
SF-539 = system: SF-539
HOP-92 = system: HOP-92
HCT-116 = system: HCT-116
HT-29 = system: HT-29
UACC-62 = system: UACC-62
OVCAR-5 = system: OVCAR-5
CAKI-1 = system: CAKI-1
HOP-62 = system: HOP-62
LOX IMVI = system: LOX IMVI
SK-MEL-5 = system: SK-MEL-5
HCC 2998 = system: HCC 2998
NCI-H522 = system: NCI-H522
HL-60 = system: HL-60
MDA-MB-435 = system: MDA-MB-435
MDA-MB-231 = system: MDA-MB-231

SMILES	GI50 (UO-31)	GI50 (SNB-75)	GI50 (KM12)	GI50 (IGROV-1)	GI50 (SF-539)	GI50 (HOP-92)	GI50 (HCT-116)	GI50 (HT-29)	GI50 (UACC-62)	GI50 (OVCAR-5)	GI50 (CAKI-1)	GI50 (HOP-62)	GI50 (LOX IMVI)	GI50 (SK-MEL-5)	GI50 (HCC 2998)	GI50 (NCI-H522)	GI50 (HL-60)	GI50 (MDA-MB-435)	GI50 (MDA-MB-231)
O=C1C=C(Nc2ccccc2C(=O)CC(=O)C(=O)Nc2cccc([N+](=O)[O-])c2)c2ccccc2C1=O	34.9 µM (inactive)	64.7 µM (inactive)	36.7 µM (inactive)	80.4 µM (inactive)	> 100 µM (inactive)	37.1 µM (inactive)	20.7 µM (inactive)	> 100 µM (inactive)	26.6 µM (inactive)	> 100 µM (inactive)	> 100 µM (inactive)	> 100 µM (inactive)	4.82 µM (inactive)	12.9 µM (inactive)	> 100 µM (inactive)	21.8 µM (inactive)	3.38 µM (inactive)	–	–
COc1ccc(/C(=N/NC(N)=O)C(c2ccc(OC)cc2)C2C(=O)Oc3ccccc32)cc1 (stereo not given)	35 µM (inactive)	> 100 µM (inactive)	> 100 µM (inactive)	> 100 µM (inactive)	> 100 µM (inactive)	75 µM (inactive)	> 100 µM (inactive)	> 100 µM (inactive)	> 100 µM (inactive)	> 100 µM (inactive)	> 100 µM (inactive)	> 100 µM (inactive)	> 100 µM (inactive)	> 100 µM (inactive)	> 100 µM (inactive)	> 100 µM (inactive)	> 100 µM (inactive)	–	–
CCCCOP1(=O)C=C(C)C(=C(Cl)Cl)C(C)=C1 (stereo not given)	19.5 µM (inactive)	11.4 µM (inactive)	2 µM (inactive)	14.8 µM (inactive)	23.6 µM (inactive)	1.5 µM (inactive)	2.3 µM (inactive)	4.33 µM (inactive)	7.01 µM (inactive)	45.1 µM (inactive)	5.83 µM (inactive)	13.9 µM (inactive)	5.21 µM (inactive)	3.84 µM (inactive)	22.3 µM (inactive)	5.45 µM (inactive)	2.4 µM (inactive)	–	–
O=[N+]([O-])c1cccc(/N=C2\c3ccccc3CN2c2cccc([N+](=O)[O-])c2)c1	> 100 µM (inactive)	24.8 µM (inactive)	> 100 µM (inactive)	> 100 µM (inactive)	71 µM (inactive)	19.4 µM (inactive)	> 100 µM (inactive)	> 100 µM (inactive)	> 100 µM (inactive)	> 100 µM (inactive)	> 100 µM (inactive)	> 100 µM (inactive)	> 100 µM (inactive)	> 100 µM (inactive)	> 100 µM (inactive)	> 100 µM (inactive)	–	> 100 µM (inactive)	> 100 µM (inactive)
CCOC(=O)Cn1c(=O)c2nc(SC)sc2n(-c2ccccc2)c1=O	> 100 µM (inactive)	> 100 µM (inactive)	> 100 µM (inactive)	> 100 µM (inactive)	–	33.7 µM (inactive)	> 100 µM (inactive)	> 100 µM (inactive)	> 100 µM (inactive)	> 100 µM (inactive)	–	> 100 µM (inactive)	–	> 100 µM (inactive)	> 100 µM (inactive)	–	> 100 µM (inactive)	–	> 100 µM (inactive)
CCCCCCCCCCCCNC1(C)CNCCCNCCNCCCNC1	2.29 µM (inactive)	1.73 µM (inactive)	1.53 µM (inactive)	1.07 µM (active)	1.87 µM (inactive)	1.85 µM (inactive)	1.32 µM (inactive)	1.58 µM (inactive)	1.82 µM (inactive)	2.23 µM (inactive)	1.87 µM (inactive)	1.98 µM (inactive)	1.84 µM (inactive)	1.68 µM (inactive)	1.79 µM (inactive)	1.82 µM (inactive)	0.726 µM (active)	–	–
